Assay results taken from patent US20230026856A1, “HETEROCYCLIC COMPOUNDS AND METHODS OF USE THEREOF” (SPARCBIO LLC, priority 2020, published 2023).

Columns and labels:
KRAS G12C protein [1] = biological target: T1, KRAS G12C protein (Homo sapiens, UniProt P01116, G12C); assay: Nucleotide exchange assay, Method I (BODIPY-GDP fluorescence, SOS1-mediated exchange of GDP for GTP); type: biochemical; conditions: 30 minutes incubation with KRAS G12C/BODIPY-GDP
Experimental: Method I. A biochemical assay to assess activity of test compounds in inhibiting SOS1-mediated exchange of GDP for GTP on the KRAS G12C protein was performed at Reaction Biology Corporation (Malvern, Pa., USA). In this assay, exchange of BODIPY-GDP to GTP results in the decrease in BODIPY-GDP fluorescence. Briefly, recombinant KRAS G12C protein (aa 2-169, prepared by Reaction Biology) was labelled with 5× excess of BODIPY-GDP. Excess BODIPY-GDP was separated from loaded protein using a gravity desalting column. Compounds were incubated with 0.15 μM KRAS G12C/BODIPY-GDP for 30 minutes. A mixture of GTP (25 μM) and SOS1 (70 nM; aa 564-1049, prepared by Reaction Biology) was added to the reaction to initiate the nucleotide exchange reaction. Reaction progress was monitored in real time (Ex/Em=(483/530)) in CLARIOstar (BMG LabTech). After signal normalization, the data were fitted using the “one phase exponential decay” model in GraphPad Prism and rate constants obtained. Rate constants were converted to % activity values which were fit to a 4-parameter sigmoidal dose-response curve in Prism to derive IC50 values for inhibition of exchange activity by test compounds.
Target sequence in this assay (P01116 2-169 isoform P01116-2 G12C): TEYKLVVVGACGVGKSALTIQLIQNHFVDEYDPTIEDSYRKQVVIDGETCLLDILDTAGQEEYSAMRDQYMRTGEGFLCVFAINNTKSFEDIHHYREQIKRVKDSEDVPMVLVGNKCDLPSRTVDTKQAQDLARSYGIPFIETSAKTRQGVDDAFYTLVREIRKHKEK

KRAS G12C protein [2] = biological target: T1, KRAS G12C protein; assay: Nucleotide exchange assay, Method III (TR-FRET, association of KRAS G12C with Raf-RBD, SOS1-mediated exchange); type: biochemical; conditions: overnight (18 hr) incubation with GDP-bound KRAS G12C
Experimental: Method III. Inhibition of SOS1-mediated exchange of GDP for GTP on the KRAS G12C protein was measured in a biochemical assay that monitors association of KRAS G12C protein with the Ras-binding domain of Raf (Raf-RBD), where the association is coupled to exchange of GDP to GTP on the KRAS G12C protein. The assay was performed at WuXi AppTec (Shanghai, China). Compounds were serially diluted in 3-fold dilutions to 11 concentrations and spotted into the wells of an assay plate in a total volume of 150 nL DMSO per well. A 2× enzyme mix was prepared by diluting GDP-bound, His-tagged KRAS G12C to 25 nM in assay buffer. 10 μL/well of 2× enzyme mix was added to all wells, and the plate was sealed and incubated overnight (18 hr) at 23° C. 4×SOS1/GDP and 4×SOS1/GTP were prepared in assay buffer. 5 μL/well of 4×SOS1/GDP mix was added to negative control wells, 5 μL/well of 4×SOS1/GTP mix was added to the remaining wells, and the plate was further incubated at 23° C. for 1 hr. Finally, FLAG-tagged Raf-RBD is added to the reaction mixture along with a pair of FRET donor- and acceptor-conjugated antibodies specific for the FLAG-tagged Raf-RBD and His-tagged KRAS G12C proteins. A 4× Raf-RBD/Tb-anti-FLAG/D2-anti-His mix was prepared in assay buffer, and 5 μL/well of the mix was added to all wells, followed by incubation at room temperature for 2 hr. The TR-FRET signals, which increase with association of KRAS G12C and Raf-RBD, were measured on a Perkin Elmer Envision 2104 plate reader, and data were analyzed by non-linear regression to obtain IC50 values for inhibition by compounds. Table 2 includes results of the assay of Method III. ‘+++’ indicates IC50 values ≤300 nM, ‘++’ indicates IC50 values between 300 nM-3 μM, and ‘+’ indicates IC50 values ≥3 μM.
Target sequence in this assay (P01116 1-188 isoform P01116-2 G12C): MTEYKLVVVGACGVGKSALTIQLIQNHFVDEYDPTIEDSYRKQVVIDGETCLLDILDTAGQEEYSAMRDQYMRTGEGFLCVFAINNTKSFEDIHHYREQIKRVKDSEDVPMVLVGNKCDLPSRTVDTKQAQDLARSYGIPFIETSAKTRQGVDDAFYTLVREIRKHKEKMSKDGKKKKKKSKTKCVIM

MIA PaCa-2 = assay: Cell proliferation assay panel (Cell Titer-Glo), MIA PaCa-2; type: cell-based; conditions: Homo sapiens, MIA PaCa-2, 72 h
Experimental: Potency of compounds was determined in cell proliferation assays in a panel of cancer cell lines. Cells were seeded in 384-well plates (Corning, Cat. #3765) at specified densities in 40 μL of culture medium and incubated overnight at 37° C. in a 5% CO2 incubator (culture conditions). With a robotic dispenser, serially diluted test compounds were added in a volume of 20 nL DMSO to wells in the culture plate to achieve the final desired concentrations of test compounds, and the cells were further incubated in culture conditions for 72 hr. The assay was terminated by addition of 25 μL of Cell Titer-Glo reagent (Promega, Madison, Wis.) to each well. Contents were mixed, the plate was incubated for 10 min at room temperature and luminescence was measured. The IC50 value of each test compound was calculated with XLFit curve fitting software. Results are shown in Table 4. ‘+++’ indicates IC50 values ≤300 nM, ‘++’ indicates IC50 values between 300 nM-3 μM, and ‘+’ indicates IC50 values ≥3 μM.

[3] = system: Phosphorylation of ERK in NCI-H358 cells; assay: pERK assay, Method II (homogeneous TR-FRET, phospho-ERK Thr202/Tyr204); type: cell-based; conditions: Homo sapiens, 4 hr compound treatment
Experimental: Method II. Phosphorylation of ERK was assessed by a homogeneous TR-FRET assay (Advanced phospho-ERK (Thr202/Tyr204) cellular kit; Cat. #64AERPEH, Cisbio). In brief, NCI-H358 cells were seeded in a 384-well culture plate at a density of 6000 cells in 40 μL medium/well and grown overnight at 37° C. and 5% CO2. Each test compound was dosed in duplicate in a 10-dose 3-fold titration starting at 10 μM or 2 μM. The culture plate was then incubated for 4 hr in the incubator. At the end of the compound treatment, the medium was removed, 35 μL of lysis buffer was added to each well, and the plate was agitated on a plate shaker for 40 mins at 4° C. An antibody cocktail of phospho-ERK1/2 Eu Cryptate antibody and Phospho-ERK1/2 d2 antibody was prepared by separately diluting the antibodies 20-fold with detection buffer and then mixing them together. 3.4 μL of antibody cocktail was dispensed to each well of an empty 384-well white ProxiPlus assay plate (Perkin Elmer), and the plate briefly centrifuged. 13.6 μL of cell lysate was then added to the antibody-containing wells, and the plate was briefly centrifuged and then incubated 2 hr at room temperature. The plate was read on a fluorescence plate reader (Envision2104, Perkin Elmer), with an excitation wavelength of 337 nm and emission wavelengths of 615 nm and 665 nm. The IC50 value of each test compound was calculated with XLFit curve fitting software. Results are shown in Table 6. ‘+++’ indicates IC50 values ≤300 nM, ‘++’ indicates IC50 values between 300 nM-3 μM, and ‘+’ indicates IC50 values ≥3 μM.

NCI-H358 cells = assay: 3D cell proliferation assay (Cell Titer-Glo 3D); type: cell-based; conditions: Homo sapiens, NCI-H358, 168 h, NCI-H358, 3D (ultra-low attachment); 7 days
Experimental: NCI-H358 cells (ATCC® CRL-5807™) were plated in a 384-well Black/Clear Round Bottom Ultra-Low Attachment Microplate (Corning) in medium (RPMI-1640+10% FBS) at a density of 1000 cells in 50 μL per well, then incubated overnight at 37° C. and 5% CO2. Cells were treated with test compounds at 9 concentrations within a specified concentration range (e.g., 0.5 nM-10 μM) for generation of dose response curves. Test compounds were prepared by 1:3 serial dilution in DMSO from a specified starting concentration (e.g., 20 μM, 2 μM or 0.2 μM) and then added to wells of the assay plate in a total volume of 150 nL DMSO. The cells were further incubated at 37° C. and 5% CO2 for 7 days. Cell viability was assessed by adding 40 μL of Cell Titer-Glo® 3D reagent (Cat. No.: G9683, Promega) to each well and reading luminescence after mixing and incubation of the samples. The IC50 value of each test compound was calculated with XLFit curve fitting software.

Structure (SMILES)	IC50 (KRAS G12C protein [1])	IC50 (KRAS G12C protein [2])	IC50 (MIA PaCa-2)	IC50 [3]	IC50 (NCI-H358 cells)
C=CC(=O)N1CCC(n2c(=O)c(=O)n(-c3c(C)ccnc3C(C)C)c3nc(-c4c(O)cccc4F)c(F)cc32)CC1 (single isomer, unassigned) [1 (Isomer A), 1-(1-acryloylpiperidin-4-yl)-7-fluoro-6-(2-fluoro-6-hydroxyphenyl)-4-(2-isopropyl-4-methylpyridin-3-yl)-1,4-dihydropyrido[2,3-b]pyrazine-2,3-dione]	300 to 3000 nM	300 to 3000 nM			
C=CC(=O)N1CCC(n2c(=O)c(=O)n(-c3c(C)ccnc3C(C)C)c3nc(-c4c(O)cccc4F)c(F)cc32)CC1 (single isomer, unassigned) [1 (Isomer B), 1-(1-acryloylpiperidin-4-yl)-7-fluoro-6-(2-fluoro-6-hydroxyphenyl)-4-(2-isopropyl-4-methylpyridin-3-yl)-1,4-dihydropyrido[2,3-b]pyrazine-2,3-dione]	≥ 3000 nM				
C=CC(=O)N1CCN(c2c(C(=O)NC)c(=O)n(-c3c(C)ccnc3C(C)C)c3nc(-c4c(C)ccc5[nH]ncc45)c(F)cc23)CC1 (single isomer, unassigned) [116 (Isomer A), 4-(4-acryloylpiperazin-1-yl)-6-fluoro-1-(2-isopropyl-4-methylpyridin-3-yl)-N-methyl-7-(5-methyl-1H-indazol-4-yl)-2-oxo-1,2-dihydro-1,8-naphthyridine-3-carboxamide]		≤ 300 nM	≥ 3000 nM		
C=CC(=O)N1CCN(c2c(S(C)(=O)=O)c(=O)n(-c3c(C)ccnc3C(C)C)c3nc(-c4c(C)ccc5[nH]ncc45)c(F)cc23)CC1 (single isomer, unassigned) [124 (Isomer A), 4-(4-acryloylpiperazin-1-yl)-6-fluoro-1-(2-isopropyl-4-methylpyridin-3-yl)-7-(5-methyl-1H-indazol-4-yl)-3-(methylsulfonyl)-1,8-naphthyridin-2(1H)-one]		≤ 300 nM	300 to 3000 nM	300 to 3000 nM	
C=CC(=O)N1CCN(c2c(S(C)(=O)=O)c(=O)n(-c3c(C)ccnc3C(C)C)c3c(F)c(-c4c(C)ccc5[nH]ncc45)c(Cl)cc23)CC1 (single isomer, unassigned) [187 (Isomer C), 4-(4-acryloylpiperazin-1-yl)-6-chloro-8-fluoro-1-(2-isopropyl-4-methylpyridin-3-yl)-7-(5-methyl-1H-indazol-4-yl)-3-(methylsulfonyl)quinolin-2(1H)-one]		≤ 300 nM	300 to 3000 nM		≤ 100 nM
C=CC(=O)N1CCN(c2c(S(C)(=O)=O)c(=O)n(-c3c(C)ccnc3C(C)C)c3nc(-c4cccc5sc(N)nc45)c(F)cc23)C[C@H]1C (single isomer, unassigned) [249 (Isomer A)]		≤ 300 nM	300 to 3000 nM		
C=CC(=O)N1CCN(c2c(S(C)(=O)=O)c(=O)n(-c3c(C)ccnc3C(C)C)c3nc(-c4cccc5sc(N)nc45)c(F)cc23)CC1 (single isomer, unassigned) [250 (Isomer A), 4-(4-acryloylpiperazin-1-yl)-7-(2-aminobenzo[d]thiazol-4-yl)-6-fluoro-1-(2-isopropyl-4-methylpyridin-3-yl)-3-(methylsulfonyl)-1,8-naphthyridin-2(1H)-one]		≤ 300 nM	300 to 3000 nM	≤ 300 nM	
C=CC(=O)N1CCN(c2c(C(=O)NC)c(=O)n(-c3c(C)ccnc3C(C)C)c3nc(-c4cccc5sc(N)nc45)c(F)cc23)CC1 (single isomer, unassigned) [254 (Isomer A), 4-(4-acryloylpiperazin-1-yl)-7-(2-aminobenzo[d]thiazol-4-yl)-6-fluoro-1-(2-isopropyl-4-methylpyridin-3-yl)-N-methyl-2-oxo-1,2-dihydro-1,8-naphthyridine-3-carboxamide]		300 to 3000 nM	≥ 3000 nM		
C=CC(=O)N1CCN(c2c(C(=O)NCC)c(=O)n(-c3c(C)ccnc3C(C)C)c3nc(-c4c(O)cccc4F)c(F)cc23)CC1 (single isomer, unassigned) [293 (Isomer A), 4-(4-acryloylpiperazin-1-yl)-N-ethyl-6-fluoro-7-(2-fluoro-6-hydroxyphenyl)-1-(2-isopropyl-4-methylpyridin-3-yl)-2-oxo-1,2-dihydro-1,8-naphthyridine-3-carboxamide]		≤ 300 nM	300 to 3000 nM	300 to 3000 nM	≤ 100 nM
